Experimental data from article PMC12196251, “Synthesis of New DltA Inhibitors and Their Application as Adjuvant Antibiotics to Re-Sensitize Methicillin-Resistant Staphylococcus aureus” (Molecules, 2025).
Several values for one entry are separate records, joined by “and”; a condition that tells them apart may be missing. Equal values may be shown once. Where a name gives a salt, the structure may show the parent alone. Read-outs that look alike come from different tables or passages of the source.

Key:
[1] = biological target: T1, recombinant DltA from E. faecalis (Enterococcus faecalis, UniProt Q830N0); assay: DltA enzyme inhibition, PPi release coupled-enzyme assay; assay type: biochemical
T1 construct: made in house; host or cells: E. coli
T1 sequence (Q830N0 1-506): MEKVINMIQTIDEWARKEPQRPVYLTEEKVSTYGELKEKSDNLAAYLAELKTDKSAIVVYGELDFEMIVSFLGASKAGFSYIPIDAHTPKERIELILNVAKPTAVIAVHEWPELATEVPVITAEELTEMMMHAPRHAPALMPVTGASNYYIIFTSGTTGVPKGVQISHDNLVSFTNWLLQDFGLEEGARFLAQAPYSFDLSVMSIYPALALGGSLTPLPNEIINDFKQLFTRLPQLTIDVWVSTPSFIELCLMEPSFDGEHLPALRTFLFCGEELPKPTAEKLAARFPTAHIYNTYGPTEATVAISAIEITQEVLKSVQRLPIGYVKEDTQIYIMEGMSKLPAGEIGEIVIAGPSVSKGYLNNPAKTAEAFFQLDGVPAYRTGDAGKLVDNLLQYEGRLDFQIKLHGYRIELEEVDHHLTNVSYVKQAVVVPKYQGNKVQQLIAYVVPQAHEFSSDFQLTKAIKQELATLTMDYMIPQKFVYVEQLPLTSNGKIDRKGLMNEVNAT
Experimental: (§1) All new compounds were then evaluated in vitro for enzyme inhibition against recombinant DltA from E. faecalis or S. epidermis. Half-maximal inhibitory concentrations (IC50) were then determined by measuring the amount of PPi released at different inhibitor concentrations (Table 2). […] We noticed the DltA enzyme tolerated the presence of various modifications on the 2′-position, but the activity was inversely related to the size of the introduced group. […] Despite a good predicted binding affinity (−8.7 Kcal/mol), we hypothesize that the lower activity could be explained by the fact that the squaramide nitrogen atom might not be under its anionic form, as is the case with sulfamate 1.
(§2) The DltA-catalyzed ATP-hydrolysis reaction was monitored in vitro via PPi release (DltA +D-alanine +ATP → DltA-DAla-AMP +PPi) using a coupled-enzyme assay. The purified DltA was pretreated with DltC purified from E. coli to clear D-Ala-AMP already present in the enzyme preparation after expression in E. coli. Holo-DltC is the natural protein partner of DltA, and DltC purified from E. coli BL21 (DE3) contained 51% of this active form of DltC as determined by HPLC analysis. DltA was pretreated with DltC (ratio 1:1.2), incubated for 30 min at 37 °C and 30 min at 4 °C. Three successive washes were realized on Amicon Ultra-2 Centrifugal Filter Unit—Ultracel 30 membrane 30 kDa MWCO (Merck, Darmstadt, Germany) with elution buffer EB at 4 °C. The components of the coupled enzyme assay included 1.5 μM pre-treated DltA, 20 μM of ATP, and 14 μM of D-alanine. The half-maximal inhibitory concentration (IC50) of potential DltA inhibitors was determined by the addition of different concentrations of the synthesized molecules. PPi release was determined using the PiPer—Pyrophosphate assay kit (Invitrogen, Waltham, MA, USA) according to the recommendation of the supplier. Reactions were carried out in 96-well Chimney Style, non-binding Microplates with μClear Film Bottom (Greiner Bio-one, Frickenhausen, Germany). Plates were incubated at 37 °C for 5 h and read in a FlexStation 3 Multi-Mode plate reader (Molecular Devices, Silicon Valley, CA, USA), with λ excitation of 530 nm and λ emission of 590 nm. Experiments were conducted in sextuplicate, and the IC50 was determined by linear regression of the curve.

[2] = biological target: T2, recombinant DltA from S. epidermidis (Staphylococcus epidermidis, UniProt Q5HQN0); assay: as above; assay type: biochemical
T2 construct: made in house; host or cells: E. coli
T2 sequence (Q5HQN0 1-485): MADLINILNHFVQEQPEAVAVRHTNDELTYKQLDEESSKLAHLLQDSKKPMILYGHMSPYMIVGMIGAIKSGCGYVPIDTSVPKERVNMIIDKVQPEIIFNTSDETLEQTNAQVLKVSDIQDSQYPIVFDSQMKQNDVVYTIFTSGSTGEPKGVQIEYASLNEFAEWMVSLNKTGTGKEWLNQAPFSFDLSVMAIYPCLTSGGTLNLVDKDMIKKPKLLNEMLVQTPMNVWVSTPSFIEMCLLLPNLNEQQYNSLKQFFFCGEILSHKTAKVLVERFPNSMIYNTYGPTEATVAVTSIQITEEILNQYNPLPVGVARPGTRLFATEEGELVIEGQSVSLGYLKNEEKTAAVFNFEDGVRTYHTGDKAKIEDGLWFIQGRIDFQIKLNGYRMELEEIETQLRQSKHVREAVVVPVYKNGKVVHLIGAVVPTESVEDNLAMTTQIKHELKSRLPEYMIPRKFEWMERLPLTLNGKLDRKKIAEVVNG
Experimental: as §1, §2

[3] = tested on: D-alanyl ester of the MRSA cell wall; assay: Quantification of D-alanyl ester in the bacterial cell wall; assay type: cell-based, S. aureus; details: inhibitor at 1 mM, value (spread)
Experimental: (§3) All these compounds were also tested […] against MRSA clinical isolates. […] The minimum inhibitory concentrations (MICs) of imipenem (IPM) were next determined in the absence or presence of 1 mM of the different DltA inhibitors to evaluate their potential to re-sensitize MRSA to this β-lactam (Table 2). […] To clarify this hypothesis, quantification of D-alanyl ester of the MRSA cell wall was performed as previously described in the presence of inhibitors (Table 2). […] These new series represent a promising structure entry not reported yet for the inhibition of DltA and the re-sensitization of bacteria toward known antibiotics.
Ester-linked D-alanines were quantified as described previously, with the following modifications. Cultures were grown in 5 mL of BHI supplemented with DltA inhibitor to a final concentration of 0.05, 0.1, 0.25, 0.5, 0.75, or 1 mM for 16 h at 37 °C under shaking (120 rpm). Briefly, the quantification is based on the oxidation of a chromogen by H2O2 generated when free D-alanines are oxidized by a D-amino acid oxidase. Three independent experiments with duplicate samples were performed.

[4] = tested on: MRSA clinical isolates; set-up: method as in PMID 31339997, PMID 34450626, PMID 40116514; details: S. aureus (MRSA); in presence of inhibitor 1; previously reported; cited from earlier work
[5] = biological target: DltA; set-up: method as in PMID 15955059; details: DltA inhibitor; cited from earlier work
[6] = tested on: MRSA clinical isolates; assay: MIC of imipenem against MRSA in absence or presence of DltA inhibitor; assay type: cell-based, S. aureus; details: in presence of 1 mM of the DltA inhibitor; for MIC: Staphylococcus aureus, MRSA
Experimental: as §3
Colonies from BHI agar plates were suspended in saline solution (0.9% NaCl) and adjusted to an OD600 of 0.5. For growth kinetics determination, 96-well microplates (Starlab, Orsay, France) containing 200 μL of fresh BHI medium were inoculated with bacterial suspensions to an OD600 of 0.02 with a wide range of DltA inhibitors (from 0 to 2 mM). Plates were incubated at 37 °C with shaking (orbital amplitude of 3 mm) in a microplate reader (InfiniteM Nano, Tecan, Seoul, Republic of Korean). OD600nm was measured every 10 min for 24 h. Determination of MIC/MBC of antibiotics and bacterial survival assays were performed as previously described using BHI medium. The DltA inhibitor was diluted in pure water and added to the growth medium to a final concentration of 0, 0.1, 0.25, 0.5, 0.75, or 1 mM.

[7] = biological target: T1, recombinant DltA from E. faecalis; set-up: method as in doi:10.1002/ejoc.202300258; details: previous reported work; cited from earlier work
[8] = S. aureus (MRSA), read-out: MIC of IPM
[9] = read-out: MIC of IPM, S. aureus (MRSA)

Compound | IC50 [1] [nM] | IC50 [2] [nM] | Reduction in D-Ala Ester Residues [3] | MIC of IPM [4] [µg/mL] | Ki [5] [nM] | MIC [6, 8] [µg/mL] | MIC [6, 9] [µg/mL] | IC50 [7] [nM] | MIC of IPM ([6]; S. aureus (MRSA)) [µg/mL]
C[C@@H](N)C(=O)NS(=O)(=O)OC[C@H]1O[C@@H](n2cnc3c(N)ncnc32)[C@H](O)[C@@H]1O [Compound 1, reference compound] | 2300 | 2400 | 86.7% and 86.7 (10.5) % | 0.25 | 200 | – | – | – | –
CC(N)C(=O)NS(=O)(=O)NCC1OC(n2cnc3c(N)ncnc32)C(O)C1O [Compound 30, (R)-2-amino-N-(N-(((2R,3S,4R,5R)-5-(6-amino-9H-purin-9-yl)-3,4-dihydroxytetrahydrofuran-2-yl)methyl)sulfamoyl)propenamide salt] | 1800 | 2000 | 80.9% and 80.9 (18.4) % | – | – | 1 | – | – | –
CC(N)C(=O)NS(=O)(=O)NCC1OC(n2cnc3c(N)ncnc32)C(F)C1O [Compound 31, (R)-2-amino-N-(N-(((2R,3R,4R,5R)-5-(6-amino-9H-purin-9-yl)-4-fluoro-3-hydroxytetrahydrofuran-2-yl)methyl)sulfamoyl)propenamide salt] | 3200 | – | 0% | – | – | 32 | – | – | –
C[C@@H](N)C(=O)c1cn(C/C(CO)=C(\F)Cn2cnc3c(N)ncnc32)nn1 [Compound 39] | – | – | 0% | – | – | – | 16 | 7400 | –
C[C@@H](N)C(=O)c1cn(C[C@H]2O[C@@H](n3cnc4c(N)ncnc43)[C@H](O)[C@@H]2O)nn1 [Compound 40] | – | – | – | – | – | – | 8 | 4500 | –
C[C@@H](N)C(=O)c1cn(C[C@H]2O[C@@H](n3cnc4c(N)ncnc43)[C@H](F)[C@@H]2O)nn1 [Compound 50, (R)-2-amino-1-(1-(((2R,3R,4R,5R)-5-(6-amino-9H-purin-9-yl)-4-fluoro-3-hydroxytetrahydrofuran-2-yl)methyl)-1H-1,2,3-triazol-4-yl)propan-1-one salt] | 14700 | – | 8.6 (1.1) % | – | – | – | 16 to 64 | – | 32
